Test results published in the supplement of paper PMC10307832.

Key:
Assay in all cases: relative viability (nuclei count vs DMSO), 5 days (fraction); higher = more cells survive
XMD14-99 + Linsitinib = compound: CN1CCN(CC1)C2=CC(=C(C=C2)NC3=NC(=C(S3)C(=O)C4=C(C=CC=C4Cl)Cl)N)OC [XMD14-99] + C[C@]1(O)C[C@@H](c2nc(-c3ccc4ccc(-c5ccccc5)nc4c3)c3c(N)nccn32)C1 [Linsitinib] (partner 1 µM)
Method in brief: (§1)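 Cells from lung cancer lines were seeded into 1536-well plates and, one day later, dosed by pin tool. Treatments were either a single drug or a fixed dose of an anchor drug with five library-drug doses (not always all listed) in √10 steps. After 5 days, nuclei were stained in a one-step fixation (final 0.05% Triton X-100, 1% formaldehyde, 1 ug/ml Hoechst) and counted on 4× images, and relative viability is the treated-to-vehicle nuclei ratio, as the median of duplicate plates.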

AZD1208 + Decitabine = compound: N[C@@H]1CCCN(c2c(/C=C3\SC(=O)NC3=O)cccc2-c2ccccc2)C1 [AZD1208] + Nc1ncn([C@H]2C[C@H](O)[C@@H](CO)O2)c(=O)n1 [Decitabine] (partner 2 µM)
Method in brief: as §1

XMD14-99 + Crizotinib = compound: CN1CCN(CC1)C2=CC(=C(C=C2)NC3=NC(=C(S3)C(=O)C4=C(C=CC=C4Cl)Cl)N)OC [XMD14-99] + C[C@@H](Oc1cc(-c2cnn(C3CCNCC3)c2)cnc1N)c1c(Cl)ccc(F)c1Cl [Crizotinib] (partner 1 µM)
Method in brief: as §1

AZD1208 + Palbociclib = compound: N[C@@H]1CCCN(c2c(/C=C3\SC(=O)NC3=O)cccc2-c2ccccc2)C1 [AZD1208] + CC(=O)c1c(C)c2cnc(Nc3ccc(N4CCNCC4)cn3)nc2n(C2CCCC2)c1=O [Palbociclib] (partner 0.5 µM)
Method in brief: as §1

Cell Line	relative viability (XMD14-99 + Linsitinib; first compound 0.08 µM)	relative viability (XMD14-99 + Linsitinib; first compound 0.8 µM)	relative viability (XMD14-99 + Linsitinib; first compound 2.53 µM)	relative viability (XMD14-99 + Linsitinib; first compound 8 µM)	relative viability (AZD1208 + Decitabine; first compound 0.08 µM)	relative viability (AZD1208 + Decitabine; first compound 0.253 µM)	relative viability (AZD1208 + Decitabine; first compound 0.8 µM)	relative viability (AZD1208 + Decitabine; first compound 2.53 µM)	relative viability (AZD1208 + Decitabine; first compound 8 µM)	relative viability (XMD14-99 + Crizotinib; first compound 0.08 µM)	relative viability (XMD14-99 + Crizotinib; first compound 0.8 µM)	relative viability (XMD14-99 + Crizotinib; first compound 2.53 µM)	relative viability (XMD14-99 + Crizotinib; first compound 8 µM)	relative viability (AZD1208 + Palbociclib; first compound 0.08 µM)	relative viability (AZD1208 + Palbociclib; first compound 0.253 µM)	relative viability (AZD1208 + Palbociclib; first compound 0.8 µM)	relative viability (AZD1208 + Palbociclib; first compound 2.53 µM)	relative viability (AZD1208 + Palbociclib; first compound 8 µM)
LCLC-103H	0.909	1.13	1	0.973	0.715	0.654	0.707	0.723	0.743	0.986	1.02	1.01	0.989	0.494	0.417	0.52	0.462	0.434
LK-2	0.398	0.369	0.659	0.471	0.316	0.291	0.23	0.274	0.195	0.232	0.193	0.2	0.223	0.58	0.486		0.294	0.266
LOU-NH91	0.963	1	0.924	0.865	0.766	0.798	0.793	0.798	0.798	0.789	0.743	0.717	0.698	0.473	0.56	0.549	0.525	0.531
LU99A	0.511	0.396	0.488	0.425	0.991	0.899	0.795	0.852	0.799	0.612	0.489	0.542	0.468	0.379	0.414	0.398	0.339	0.319
LXF-289	0.894	0.926	0.939	0.798	0.36	0.423	0.378	0.36	0.289	0.814	0.802	0.814	0.712	0.587	0.639	0.583	0.622	0.635
NCI-H23	0.516	0.617	0.59	0.527	0.292	0.285	0.308	0.329	0.275	0.45	0.447	0.461	0.351	0.491	0.478	0.462	0.477	0.356
NCI-H322M	0.903	0.959	0.951	0.845	0.669	0.659		0.669	0.713	0.927	0.972	0.905	0.848	0.488	0.467		0.5	0.502
NCI-H358	0.703	0.673	0.557	0.29	0.206	0.188	0.185	0.207	0.197	0.661	0.733	0.576	0.302	0.14	0.149	0.109	0.14	0.14
NCI-H441	0.719	0.52	0.528	0.382	0.205	0.298	0.291	0.224	0.264	0.596	0.797	0.661	0.494	0.192	0.196	0.204	0.178	0.23
NCI-H460	0.685	0.77	0.61	0.331	0.458	0.604	0.465	0.495	0.516	0.876	0.888	0.955	0.667	0.195	0.19	0.223	0.15	0.159
NCI-H520	1.08	0.972	1	0.657	0.566	0.507	0.473	0.456	0.428	0.734	0.694	0.724	0.648	0.188	0.195	0.146	0.205	0.186
NCI-H647	1.25	1.12	1.27	0.929	0.256	0.56	0.33	0.372	0.297	0.948	0.928	1.01	0.741	0.322	0.486	0.324	0.397	0.304
NCI-H650	1.08	0.906	0.77	0.675	0.284	0.297	0.352	0.31	0.343	0.613	0.728	0.684	0.623	0.309	0.287	0.314	0.29	0.289
NCI-H661	0.5	0.58	0.502	0.441	0.559	0.56	0.547	0.502	0.51	0.897		0.894	0.838	0.418	0.394	0.428	0.414	0.4
NCI-H727	0.303	0.284	0.247	0.297	0.906	0.689	0.589	0.867	0.854	0.889	0.704	0.561	0.381	0.597	0.628	0.64	0.614	0.56
